Reference: patent publication US10850274B2, “Microfluidic assisted perfusion devices” (The Regents of the University of California, priority 2015, dated 2020)

How the values were obtained:
MCF7 spheroids = assay: Change in MCF7 spheroid size after Doxorubicin treatment in tumor-on-a-chip device; format: cell-based; conditions: for decrease in spheroid area: 3 days (D8 area normalized to D5)
Description: HUVECs and MCF7 spheroids were encapsulated within GelMA hydrogels. The MCF spheroids were passed through a cell strainer having 100 μm pore size (Corning) to eliminate single cells and small spheroids. Around 50 spheroids with a diameter of ˜200 μm were dispersed in 5 mL of PBS containing 2 million HUVEC cells. The mixture was centrifuged for 3 minutes at 800 rpm. The supernatant was aspirated and 100 μL of 10% GelMA solution was added to the cell pellet. The cells were re-suspended gently using a pipette before the addition of 0.01% ascorbic acid (antioxidant) and 2 μM LAP (photoinitiator) to the solution. This solution was again mixed gently, drawn into a syringe, and injected into the microfluidic device (FIG. 8, step G).
This device was placed onto a transparency film photomask containing an ellipse pattern and mounted onto a microscope stage (FIG. 8, steps H-I). Using the stage controller of the microscope, the position of the fluidic device was moved to locate individual MCF7 spheroids surrounded by HUVECs under bright field illumination. Each location was exposed to UV light with an excitation and emission wavelengths of approximately 358 and 463 nm, respectively, for 18 seconds. Several locations were photopolymerized before flushing the device with PBS containing 4% Penicillin/Streptomycin. Mixed Media (MM) containing 50% GM and 50% HM was subsequently injected into the device and the GelMA structures containing MCF7 spheroids and HUVECs were cultured at 37° C. and 10% CO2.
Brightfield images of the GelMA hydrogels containing the spheroids and HUVECs were recorded as a function of culture time (1-5 days) to examine their growth post-encapsulation. The area of the spheroid was quantified by tracing the boundary of the spheroid using the free-hand selection tool on ImageJ. […]
The potential of the device as a drug screening platform was assessed by analyzing the effects of Doxorubicin on HUVEC barrier and the tumor spheroids. […] To quantify the effects of Doxorubicin, the changes in spheroid size was analyzed before and after treatment with varying concentrations of the drug.

HUVECs = assay: Effect of Doxorubicin on HUVEC endothelial barrier around GelMA structures
Description: HUVECs and MCF7 spheroids were encapsulated within GelMA hydrogels.
Doxorubicin (Cat. No. D1515, Sigma-Aldrich) was weighed and dissolved in DMSO to achieve a concentration of 100 mg/mL. This solution was distributed into small aliquots and stored in −20° C. The stock solution was thawed and diluted to 100 μg/mL in pre-warmed MM (˜37° C.) and sterilized using a DMSO-resistant syringe filter (Pall Corporations). This 100 μg/mL solution was further diluted in MM to acquire doxorubicin concentrations of 1 and 10 μg/mL used herein.
The potential of the device as a drug screening platform was assessed by analyzing the effects of Doxorubicin on HUVEC barrier and the tumor spheroids. Cell laden GelMA structures, cultured for 5 days, were exposed to different concentrations of Doxorubicin (1, 10, and 100 μg/mL) for 3 days.

[1] = tested on: neonatal mouse cardiomyocytes
Description: Isolated primary neonatal cardiomyocytes were mixed with 8.5% wt/vol GelMa solution containing 0.01% wt/vol of ascorbic acid and 2 mM lithium phenyl-2,4,6-trimethylbenoylphosphinate (LAP). This solution was injected into the fluidics chamber (see FIG. 3D) and a dark transparency mask containing the clear ellipse patterns was placed under the circular chamber of the device. The GelMa solution was photo-polymerized using a UV light source with an excitation wavelength of 365±40 nm (see FIG. 3E). The regions of the hydrogel precursor solution exposed to UV light polymerized rapidly, thereby forming the microtissues with cells encapsulated within (see FIG. 3E). The unreacted hydrogel precursor solution was removed from the fluidics chamber by injecting PBS in excess (see FIG. 3F). Thus, the 3D device with patterned cardiac-microtissues between hydrogels was created (see FIG. 3G). The device was then perfused with cardiomyocyte growth media and incubated at 37° C. and 10% CO2 culture conditions. […]
To quantify the forces generated by the cardiomyocytes, the propagation of forces originating from the GelMA structures were exploited to PAm hydrogels. […] In addition, a measured value of 8.5 kPa was used for the elastic modulus of the PAm hydrogel and 0.45 for Poisson's ratio.
By treating the PAm hydrogel as a 3 dimensional block tethered at the bottom in mechanical equilibrium, a finite element (FE) approach was used to solve a series of electrostatics equations. […] To obtain the input for the boundary condition at the top surface of the gel, the displacement of the hydrogel was quantified by tracking the fluorescent particles embedded within the network using particle image velocimetry (PIV). […]
Using this approach, fluorescent images were obtained of the green beads embedded within PAm at a frequency of 9 frames per second in order to capture the contraction profile of the cardiomyocytes at 20× magnification. […] Using the FE approach, the traction stress field caused by the cellular forces was calculated.

SMILES	spheroid growth less than those cultured in the absence of the drug (MCF7 spheroids; 1 μg/mL Doxorubicin, 3 days, growth still observed) [%]	decrease in spheroid area (MCF7 spheroids; 10 μg/mL Doxorubicin) [%]	decrease in spheroid area (MCF7 spheroids; 100 μg/mL Doxorubicin) [%]	presence of endothelial barrier (HUVECs; at and above 10 μg/mL of Doxorubicin, D8)	endothelial barrier (HUVECs; high doses of Doxorubicin (>10 μg/mL))	endothelial barrier (cytotoxicity to HUVECs) (HUVECs; upon exposure to Doxorubicin, 3 days)	magnitude of contraction ([1]; addition of epinephrine (0.1 μg/mL))	ratio of residual stress in the presence of epinephrine to absence of epinephrine ([1]; multiple microtissues, cultured 7 days, value <1 = decrease, epinephrine 0.1 μg/mL)	ratio of force amplitude in the presence of epinephrine to absence of epinephrine ([1]; multiple microtissues, cultured 7 days, value >1 = increase, epinephrine 0.1 μg/mL)
COc1cccc2c1C(=O)c1c(O)c3c(c(O)c1C2=O)C[C@@](O)(C(=O)CO)C[C@@H]3O[C@H]1C[C@H](N)[C@H](O)[C@H](C)O1 [Doxorubicin]	~20	~7	~15	lack thereof	loss of the endothelial barrier	disappeared	–	–	–
CNC[C@H](O)c1ccc(O)c(O)c1 [epinephrine]	–	–	–	–	–	–	increased	~0.9	~1.4
